From patent publication US20250120969A1, “METHODS AND COMPOSITIONS FOR TREATING INFLAMMATION INJURY IN THE LUNGS” (CalciMedica, Inc., priority 2022, published 2025)

Legend:
human lymphocytes = test: In vitro cytokine release in human lymphocytes; assay type: cell-based
Text: (§1) Preclinical data supports the use of CRAC inhibitors (e.g. N-(5-(6-Chloro-2,2-difluorobenzo[d][1,3]dioxol-5-yl)pyrazin-2-yl)-2-fluoro-6-methylbenzamide, Compound 1) in severe COVID-19 pneumonia.

[1] = test system: lung tissue cytokines and neutrophil infiltration; test: Animal models of acute pancreatitis (AP) and lung injury; assay type: in vivo
Text: as §1

[2] = test system: patients with AP and accompanying SIRS plus hypoxemia; test: Clinical and pharmacodynamic study in patients with acute pancreatitis, SIRS and hypoxemia; settings: human, in vivo
CRAC channels = CRAC channels (Homo sapiens, UniProt Q96D31); test: CRAC channel inhibition
Chain of CRAC channels (Q96D31 whole entry): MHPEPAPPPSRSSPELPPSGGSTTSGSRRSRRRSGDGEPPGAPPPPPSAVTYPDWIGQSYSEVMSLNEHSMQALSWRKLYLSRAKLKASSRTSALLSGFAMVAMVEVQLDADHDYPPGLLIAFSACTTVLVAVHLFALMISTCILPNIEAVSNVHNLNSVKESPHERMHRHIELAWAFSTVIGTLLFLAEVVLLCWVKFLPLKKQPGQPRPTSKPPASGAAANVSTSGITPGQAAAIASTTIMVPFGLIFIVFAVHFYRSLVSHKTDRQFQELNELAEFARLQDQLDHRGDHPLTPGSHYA

## Cc1cccc(F)c1C(=O)Nc1cnc(-c2cc3c(cc2Cl)OC(F)(F)O3)cn1 [Compound 1, N-(5-(6-Chloro-2,2-difluorobenzo[d][1,3]dioxol-5-yl)pyrazin-2-yl)-2-fluoro-6-methylbenzamide]
Human lymphocytes
  Release of multiple cytokines: inhibits release of multiple cytokines
[1]
  Cytokines and neutrophil infiltration in lung tissue: inhibit cytokines and neutrophil infiltration in lung tissue
[2]
  IL-6 levels in patients: marked reduction in IL-6 levels
  Respiratory dysfunction in patients: beneficial effects on respiratory dysfunction
CRAC channels
  Inhibition of CRAC channels: potent and selective
